Measured values published in patent US10525056B2, “Procaspase-activating compounds and methods” (The Board of Trustees of the University of Illinois, priority 2011, dated 2020).
Read-outs that look alike come from different tables or passages of the source.

Key:
U-937 cells = assay: Induction of apoptosis by hit compounds (Annexin V-FITC/propidium iodide flow cytometry); type: cell-based; conditions: Homo sapiens, 7.5 μM compound, 24 hours
Description: U-937 Cells (1 mL of 6×10^5 cells/mL) were treated with 10 μL of 750 μM DMSO solutions of the compounds to achieve a final concentration of 7.5 μM. […] The cells were harvested via centrifugation (200 g for 5 minutes), washed with PBS (2 mL), and resuspended in 450 μL Annexin V Binding Buffer. To each sample was added 3.5 μL of FITC conjugated Annexin V stain (Southern Biotech) and 3.5 μL of propidium iodide (Sigma) to a final concentration of 50 μg/mL. Cell populations were analyzed on a Benton Dickinson LSR II cell flow cytometer.

[1] = test system: U-937 human lymphoma cells; assay: 72 Hour IC50 Cell Death Assay (sulforhodamine B); type: cell-based; conditions: read-out: 72-hour IC50 (μM), U-937 cells, 72 h treatment, average ± SEM of three experiments
Description: U-937 human lymphoma cells were plated into the wells of 96 well plate at a density of 15,000 cells per well in 99 μL of RPMI 1640 growth media with 10% FBS and 1% pen-strep. To each well was added 1 μL of compound stock solutions in DMSO at varying concentrations such that the cells were treated with concentrations between 0 μM and 100 μM compound. Each concentration was tested in quintuplicate per plate. In each plate 5 wells received 20 μM doxorubicin as a positive death control and 5 wells received […] as a negative control.
After the 72 hour incubation period, the plates were analyzed using a Sulforhodamine B assay (Vichai and Kirtikara, Nat Protoc 2006, 1, 1112-1116). Specifically, to each well of the plate 25 μL of a 50% (w/v) solution of trichloroacetic acid in H2O was added and the plates were incubated for 4 hours at 4° C. The plates were then washed gently with water five times. The plates were allowed to air dry after which 100 μL of a 0.057% (w/v) Sulforhodamine B in a 1% (v/v) acetic acid solution was added to each well for 30 minutes at room temperature. The plates were gently washed 5 times with 1% (v/v) acetic acid and air dried. 200 μL of 10 mM Tris base (pH 10.4) was added to each well and the plates were placed on an orbital shaker for thirty minutes. The level of SRB was quantified fluorometrically at excitation and emission wavelengths 488 and 585 nm, respectively, on a Molecular Devices plate reader and the percent cell death calculated and normalized to the positive control (100% cell death) and the negative control (0% cell death). The percent cell death was averaged for each compound concentration and plotted as a function of compound concentration. The data were fit to a logistical dose response curve using Table curve 2D and the IC50 value was calculated. The experiment was repeated three times and the average of the calculated IC50 values was reported. The standard error of the mean (SEM) was determined and reported for the triplicate experiments.

[2] = mice, for 48 hours; cited from earlier work
[3] = test system: U-937 human lymphoma cells; assay: Cell death assay for initial screen (Annexin V-FITC/propidium iodide flow cytometry); type: cell-based; conditions: U-937 cells, 20 μM compound, 24 hours
Description: Apoptotic cell death was assessed by flow cytometry, using Annexin V-FITC/propidium iodide staining.
Compound (2 μL of a 10 mM DMSO solution) was added in singlet by direct addition to a well containing 998 μL U-937 cells (1×10^6) in RPMI 1640 media (10% FBS) at a final compound concentration of 20 μM. […] The cells were double stained with FITC-Annexin V and propidium iodide and a cell population of at least 10,000 events was collected by the LSR II flow cytometer. Percent viable cells (Annexin V—negative, propidium iodide—negative) were determined using FCS Express software.

[4] = research dogs, for 48 hours; cited from earlier work

Question: For `CC(C)(C)c1cc(/C=N/NC(=O)CN2CCN(Cc3ccc4ccccc4c3)CC2)c(O)c(C(C)(C)C)c1` [3{25,7}, N′-(3,5-di-tert-butyl-2-hydroxybenzylidene)-2-(4-(naphthalen-2-ylmethyl)piperazin-1-yl)acetohydrazide], which cytotoxicity at 7.5 µM (U-937 cells) is on record?
Answer: 50%

Question: And the IC50 [1]?
Answer: 1 ± 0.04 µM

Question: Which cytotoxicity at 7.5 µM (U-937 cells) does the source give for `COc1ccc(CN2CCN(CC(=O)N/N=C/c3cc(C(C)(C)C)cc(C(C)(C)C)c3O)CC2)cc1` [3{2,7}, N′-(3,5-di-tert-butyl-2-hydroxybenzylidene)-2-(4-(4-methoxybenzyl)piperazin-1-yl)acetohydrazide] here?
Answer: 90%

Question: And the IC50 [1]?
Answer: 1.8 ± 0.2 µM

Question: Which cytotoxicity at 7.5 µM (U-937 cells) does the source give for `C=CCc1cccc(/C=N/NC(=O)CN2CCN(Cc3ccc(C(C)(C)C)cc3)CC2)c1O` [3{20,24}, N′-(3-allyl-2-hydroxybenzylidene)-2-(4-(4-(tert-butyl)benzyl)piperazin-1-yl)acetohydrazide] here?
Answer: 83%

Question: What about the IC50 [1] of the same compound?
Answer: 0.9 ± 0.03 µM

Question: Which cytotoxicity at 7.5 µM (U-937 cells) does the source give for `CC(C)(C)c1cc(/C=N/NC(=O)CN2CCN(Cc3ccc(OCc4ccccc4)cc3)CC2)c(O)c(C(C)(C)C)c1` [3{18,7}, 2-(4-(4-(benzyloxy)benzyl)piperazin-1-yl)-N′-(3,5-di-tert-butyl-2-hydroxybenzylidene)acetohydrazide] here?
Answer: 97%

Question: What about the IC50 [1] of the same compound?
Answer: 1.4 ± 0.2 µM

Question: For `COc1ccc(OC)c(CN2CCN(CC(=O)N/N=C/c3cc(C(C)(C)C)cc(C(C)(C)C)c3O)CC2)c1` [3{4,7}, N′-(3,5-di-tert-butyl-2-hydroxybenzylidene)-2-(4-(2,5-dimethoxybenzyl)piperazin-1-yl)acetohydrazide], which cytotoxicity at 7.5 µM (U-937 cells) is on record?
Answer: 53%

Question: And the IC50 [1]?
Answer: 1.6 ± 0.2 µM

Question: For `C=CCc1cccc(/C=N/NC(=O)CN2CCN(Cc3ccccc3)CC2)c1O` [PAC-1], which cytotoxicity at 7.5 µM (U-937 cells) is on record?
Answer: 21%

Question: And the “serum concentration at doses that can be safely administered” value [2]?
Answer: ~10 µM

Question: And the “% cell death” value [3]?
Answer: ~50%

Question: What about the IC50 [1] of the same compound?
Answer: 3.8 ± 0.4 µM

Question: And the “serum concentration at doses that can be safely administered” value [4]?
Answer: ~10 µM

Question: For `CCc1ccc(CN2CCN(CC(=O)N/N=C/c3cc(C(C)(C)C)cc(C(C)(C)C)c3O)CC2)cc1` [3{28,7}, N′-(3,5-di-tert-butyl-2-hydroxybenzylidene)-2-(4-(4-ethylbenzyl)piperazin-1-yl)acetohydrazide], which cytotoxicity at 7.5 µM (U-937 cells) is on record?
Answer: 70%

Question: What about the IC50 [1] of the same compound?
Answer: 2 ± 0.2 µM
